In US4423218A, “Antibiotic neplanocin A” (Toyo Jozo Kabushiki Kaisha, priority 1978, dated 1983):

How the values were obtained:
[1] = test system: Helminthosporium oryzae M 0306; experiment: Growth inhibitory activity on plant pathogenic fungi (agar plate); format: cell-based; conditions: Bipolaris oryzae, M0306; 100 γ/ml solution, agar plate of Helminthosporium oryzae M 0306; read-out: inhibitory zone diameter
From the text: (1) Growth inhibitory activity on plant pathogenic fungi: […]

[2] = in vivo; conditions: mouse, ip, mice
[3] = Repeated intraperitoneal administration for 14 days, mortality; format: in vivo; conditions: intraperitoneally for 14 days, 5 mg/kg/day
[4] = Solubility; format: physicochemical
[5] = Nature (basicity); format: physicochemical

SMILES: Nc1ncnc2c1ncn2C1C=C(CO)C(O)C1O (single isomer, unassigned) [neplanocin A]
- zone of inhibition at 100 µg/mL [1]: 18.9 mm
- LD50 [2]: 13.7 mg/kg
- mortalities [3]: No mortalities were observed
- Solubility ([4]; acetic acid): Soluble
- Solubility ([4]; aqueous acetone): Soluble
- Solubility ([4]; benzene): Insoluble
- Solubility ([4]; chloroform): Insoluble
- Solubility ([4]; dimethylformamide): Soluble
- Solubility ([4]; dimethylsulfoxide): Soluble
- Solubility ([4]; ethyl acetate): Insoluble
- Solubility ([4]; hexane): Insoluble
- Solubility ([4]; water): Soluble
- Nature [5]: weakly basic
